Data set [1] in a line: Comparative study: myocardial and hepatic uptake of 99mTc-MIBI versus 99mTc-Mito10-MAG3. The class given is in vivo, rats. The settings on record: rat, in vivo. As for the experimental part:
(§1) ^99mTc-MIBI of clinical formulation was purchased from Bristol Myers Squibb. […] Dynamic images were acquired in identical fashion following 99mTc-MIBI injection.
In a comparative study, the myocardial uptake of ^99mTc-MIBI peaked at 2.70±0.4% ID/g within minutes after injection, and remained above 2.41±0.3% ID/g for at least 90 min. Comparatively, the myocardial uptake level of ^99mTc-Mito10-MAG 3 is 10, 40, and 120 fold lower than the uptake level of ^99mTc-MIBI at 3, 10 and 30 min after injection. The hepatic uptake of ^99mTc-MIBI was at 0.37±0.14% ID/g at 30 min after injection.

For data set [2], the system named is DMBA-induced breast carcinoma. The experiment in a line: In vivo gamma camera imaging of DMBA-induced breast carcinoma in rats. Also on record: species or system rats (female Sprague Dawley). Conditions: longitudinal experiment, at the time of detection. As for the experimental part:
The animal protocol was approved by institutional IACUC review and followed NIH guidelines. The rat model of DMBA-induced breast carcinoma was used.
As an initial feasibility study, rats were induced with 65 mg/kg DMBA dissolved in sesame oil via a single oral gavage to the stomach. […] Static images were acquired on a GE XRT gamma camera using a high-resolution parallel-hole collimator, 512×512 matrix size, 22.5×22.5 cm field of view, 140±15 keV energy window, 100 k counts. Unexpectedly, apart from the established palpable carcinomas, additional small (millimeter size) tumors were discovered by this imaging technique in the same animals. This finding promoted a longitudinal study to investigate the early detection of neoplastic growth using ^99mTc-Mito10-MAG3.
Six 48-day-old female rats were injected with 65 mg/kg DMBA. At each week after DMBA induction, the rats were imaged using the following protocol. Each rat was anesthetized with 1.6% isoflurane in room air supplemented with oxygen. […] Dynamic images were continuously acquired at one frame per min for 90 min using the imaging parameters set forth hereinabove. The weekly imaging regiment was continued for all six rats until palpable tumors became detectable, which typically takes place between seven to nine weeks after the administration of DMBA. Due to the relatively short physical half-life of ^99mTc (6 hr), no residual signal, therefore, no cross-contamination is detectable from the previous injection the week before.
as §1
The female Sprague Dawley rats have six pairs of mammary glands, among which glands a and b are away from the hepatic/gastrointestinal region. (FIG. 9, Panel A). Since the typical biodistribution of a lipophilic radiopharmaceutical in the abdominal region precludes reliable imaging of breast tissues below the diaphragm, mammary glands shown in Panels C, D, E and F were excluded from the data analysis. This exclusion also was based on the fact that such spatial distribution of mammary glands is irrelevant to that of the human anatomy.
Imaging data analysis was carried out using an inbuilt software, by carefully drawing a region of interest (ROI) on the tumor site to determine the radioactivity counts in the ROI. […] Radioactivity counts were determined in each ROI. Tumor-to-normal and tumor-to-muscle ratios were calculated as the count ratio between the two ROIs.
The rats were sacrificed by CO2 asphyxiation and the number and location of the mammary tumors were recorded at necropsy. The tumors were dissected, with the diameter and weight measured and documented. […]

Take `[99Tc].[C-]#[N+]CC(C)(C)OC.[C-]#[N+]CC(C)(C)OC.[C-]#[N+]CC(C)(C)OC.[C-]#[N+]CC(C)(C)OC.[C-]#[N+]CC(C)(C)OC.[C-]#[N+]CC(C)(C)OC` [^99mTc-MIBI, ^99mTc-methoxyisobutylisonitrile, reference compound]: the peak myocardial uptake in data set [1] was determined as 2.70±0.4 % ID/g. For the same molecule, the tumor-to-normal ratio in data set [2] (ROI count ratio tumor vs contralateral normal mammary gland) came out at 2.04±0.49. Besides, the tumor-to-muscle ratio in data set [2] (ROI count ratio tumor vs thigh muscle) came to 5.10±0.31.
